Data set [1] can be described thus: Example 10: clinical pharmacology / pharmacokinetics of OCA. The data set is classed as in vivo, human. As to conditions: for systemic exposure versus dose: 5, 10, and 25 mg once daily for 14 days; for metabolite-to-parent ratio: after daily administration of obeticholic acid; for median time (Tmax) of peak plasma concentrations: glyco-OCA and tauro-OCA conjugates, multiple oral doses of OCA 10 mg once daily. The procedure: This example describes clinical pharmacology and dosing of obeticholic acid (OCA—including obeticholic acid compositions described herein). […] OCA can be supplied as an oral tablet containing obeticholic acid in a formulation as described herein.
Median Tmax for glyco-OCA and tauro-OCA is 10 hours.
Following an oral administration of 25 mg [^14C]-OCA, about 87% of the dose is excreted in feces through biliary secretion. Less than 3% of the dose is excreted in the urine with no detection of OCA.

Data set [2] is described as follows: Physiologic pharmacokinetic model of OCA (population PK fit and simulations). Also noted: species or system human. As to conditions: normal hepatic function, model estimate. As to the method:
Plasma levels of OCA and its conjugates were measured in healthy subjects and cirrhotic patients with varying degrees of hepatic impairment. A physiologic pharmacokinetic model for OCA was developed to quantitatively describe the absorption, distribution, metabolism, and excretion of OCA in patients with and without hepatic impairment. The model was based on a published multi-compartment PK model for CDCA, and consisted of systemic, hepatobiliary, and intestinal systems. The model was used to simulate the pathophysiological abnormalities caused by cirrhosis including decreased hepatic uptake, portal-systemic shunting, decreased liver volume, and differences in amino acid conjugation.
This examples describes development of a physiologic PK model to quantitatively describe the absorption, distribution, metabolism, and excretion of OCA. In addition, the model was used to define the effects of hepatic impairment to predict the systemic and liver exposure to OCA in subjects with various degrees of liver impairment relative to healthy subjects with normal liver function. The model was developed based on 3 studies in healthy volunteers and 2 studies in patients with varying degrees of hepatic impairment […].
Data from was used to develop the model in healthy subjects (n=160) and then adjust for hepatic impairment (n=32) using the data from the above Examples. After development, the model was validated with data sourced from healthy subjects and cirrhotic patients.
The data used in model development included subject identifiers, time of dosing and sample collection, plasma drug concentrations (OCA, glyco-OCA, and tauro-OCA), dose amount, disease status (e.g., Child-Pugh score), and meal consumption information. Study participants received standardized meals at specified times during inpatient observation. Gallbladder contraction was assumed to last 90 minutes after the start of a meal. Drug concentrations below the limit of quantification (BLQ) were imputed to half of the lower limit of quantification (LLOQ). Observed and BLQ concentrations of OCA, glyco-OCA, and tauro-OCA associated with samples drawn prior to the first dose were excluded from the analyses.
A number of structural modifications were made to the base CDCA model in order to adapt it for use with OCA. For simplification, a single space was used to represent the gut (small and large intestines). Since OCA is an exogenous molecule, it was assumed that there was no endogenous synthesis and an absorption compartment with a first-order transfer coefficient (Ka) was included to represent the administration and absorption kinetics of an oral OCA dose. Based on steric hindrance by the 6-ethyl group of OCA, no bacterial 7-alpha dehydroxylation biotransformation activity (i.e., CDCA to lithocholic acid) was included in the model. Compartment volumes in the model were fixed to physiological values from the base CDCA model. The OCA model used the physiological flow values for blood, bile and gastrointestinal transit from the original physiologic PK model for CDCA, with the exception of flows from bile duct to gallbladder and from bile duct to gut. The physiological values from the base model led to poor predictions and may not be applicable due to the simplification of the enteral system into a unified gut compartment. The biotransformation and transport rates in the model, being dependent on chemical entity structure, were estimated by fitting the model to the plasma concentration time profiles of OCA, glyco-OCA, and tauro-OCA.
The PK model was first developed using the OCA, glyco-OCA, and tauro-OCA plasma concentration time profiles from healthy volunteers with normal hepatic function. Model parameter estimates related to healthy physiology were then held constant while the PK model was further developed using OCA, glyco-OCA, and tauro-OCA plasma concentration time profiles from patients with hepatic impairment (Child-Pugh scores A, B, and C). […]

For data set [3] the following is noted: normal hepatic function, Fixed; cited from earlier work.
Data set [4] deals with T1, farnesoid X receptor (FXR) (Homo sapiens, UniProt Q96RI1).
T1 sequence (Q96RI1 1-486): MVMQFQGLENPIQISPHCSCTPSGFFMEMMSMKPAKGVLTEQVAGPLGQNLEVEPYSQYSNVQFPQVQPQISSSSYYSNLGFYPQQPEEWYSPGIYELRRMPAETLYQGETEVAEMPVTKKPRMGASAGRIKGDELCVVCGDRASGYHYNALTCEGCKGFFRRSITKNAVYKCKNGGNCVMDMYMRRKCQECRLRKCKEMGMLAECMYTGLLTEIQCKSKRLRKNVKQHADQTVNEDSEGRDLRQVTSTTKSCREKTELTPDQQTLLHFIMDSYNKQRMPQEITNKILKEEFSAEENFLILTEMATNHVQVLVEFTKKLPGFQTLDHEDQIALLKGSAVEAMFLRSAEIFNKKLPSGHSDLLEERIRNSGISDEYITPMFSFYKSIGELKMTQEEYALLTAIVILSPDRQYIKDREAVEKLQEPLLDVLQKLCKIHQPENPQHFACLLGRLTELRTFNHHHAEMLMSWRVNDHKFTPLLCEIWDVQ
As to conditions: in vitro / on FXR; cited from earlier work.

Molecules are shown by their SMILES.

On to `CC[C@H]1[C@@H](O)[C@@H]2[C@H](CC[C@]3(C)[C@@H]([C@H](C)CCC(=O)NCCS(=O)(=O)O)CC[C@@H]23)[C@@]2(C)CC[C@@H](O)C[C@@H]12` [tauro-OCA], for which, in data set [1], the “systemic exposure versus dose” value is “increase more than proportionally with dose”, the metabolite-to-parent ratio came out at 12.3 and the “median time (Tmax) of peak plasma concentrations” value stood at 10 h. Further, in data set [2], the “b37: Tauro-OCA rate of deconjugation to OCA” value was 0.0200 h⁻¹, the “t11: Tauro-OCA transport rate from sinusoidal space to liver” value is 1615 h⁻¹, the “t21: Tauro-OCA transport rate from liver to bile duct” value was 9.28 h⁻¹ and the “t35: Tauro-OCA rate of absorption from gut to portal space” value is 1.62 h⁻¹. Moreover, in data set [3], the “t12: Glyco-OCA and tauro-OCA transport rate from liver to sinusoidal space” value is 1.62 h⁻¹. The “pharmacological activity relative to OCA (parent drug)” value in data set [4] was “nearly equipotent”.

`CC[C@H]1[C@@H](O)[C@@H]2[C@H](CC[C@]3(C)[C@@H]([C@H](C)CCC(=O)NCC(=O)O)CC[C@@H]23)[C@@]2(C)CC[C@@H](O)C[C@@H]12` [glyco-OCA]: in data set [1], the “systemic exposure versus dose” value is recorded as “increase more than proportionally with dose”, the metabolite-to-parent ratio was found to be 13.8 and the “median time (Tmax) of peak plasma concentrations” value turned out to be 10 h. Besides, in data set [2], the “b38: Glyco-OCA rate of deconjugation to OCA” value is 0.0431 h⁻¹, the “t9: Glyco-OCA transport rate from sinusoidal space to liver” value was 1210 h⁻¹, the “t19: Glyco-OCA transport rate from liver to bile duct” value was 7.44 h⁻¹ and the “t33: Glyco-OCA rate of absorption from gut to portal space” value was 0.904 h⁻¹. The “t12: Glyco-OCA and tauro-OCA transport rate from liver to sinusoidal space” value in data set [3] was 1.62 h⁻¹. Besides, the “pharmacological activity relative to OCA (parent drug)” value in data set [4] is recorded as “nearly equipotent”.

The values are drawn from patent US10758549B2, “Compositions of obeticholic acid and methods of use” (Intercept Pharmaceuticals, Inc., priority 2015, dated 2020).
